# According to patent US20030186887A1, “Compounds for detection of infection by chlamydophila abortus” (priority 2000, published 2003):
# Where two headings read alike, the source gives them in different places. Ends that are not written are not given here. * marks the point of attachment. Biotin = O=C1N[C@H]2[C@H](CS[C@H]2CCCCC(=O)*)N1
# What was measured:
# antibodies to C. abortus = experiment: ELISA, serological reactivity of biotinylated peptides against serum dilutions (Tables 1 and 2); type: binding, sheep
# Description: Application of the peptide mixture is performed as follows:
# Two dilutions of standard serum are used.
# The data illustrate that the length of compound has a major impact on serological reactivity.
# Thus, substitutions within the core epitopes described in this invention are possible without too much loss in compound serological reactivity.
# [1] = system: sera from sheep free of infection with C. abortus
# Description: In the Applicant's experience at least two different forms of microtitration plates may be used. One form uses tresyl-activated dextran, which is applied to the polystyrene plate and forms a layer between the plate and the peptide (Gregorius et al., 1995). The commercially available plates (‘Aquabind™’) are produced by M&E, Denmark and marketed in the UK through Labsystems by Life Sciences. […] The second form of plate is one modified by coating with streptavidin. Such plates are commercially available e.g. Labsystems, Pierce and Warriner. […] The preferred microtitration plate types used to bind streptavidin are those modified to provide high protein binding e.g. Dynex Immulon 2, Greiner High Bind. To each well is added streptavidin in 150 μl volumes. The plates are incubated, preferably for 2 hours at 35-37° C., then the contents ejected and the plates washed 3 times with PBS buffer, pH 7.4 (Appendix). The plates are thoroughly dried and stored at 4° C. until required. Application of the peptide mixture is performed as follows:
# The stock solutions (1 mg per ml) of the selected peptides are diluted in the same volume of carbonate-bicarbonate buffer, pH 9.6, to their optimum concentration. […] The peptide mixture solution is added in volumes of 150 μl per well. In a ‘controlled’ test, the peptide mixture is added to all wells in even numbered columns, while carbonate-bicarbonate buffer is added to all wells in odd-numbered columns in the same volume per well. In ‘screen’ tests, where control wells are not used for each sample, the peptide mixture is added to all 96 wells on the plate. The plates are incubated, preferably at 4° C. for 4 to 12 hours, then washed 4 times with PBS/Tween buffer (Appendix) and thoroughly dried, preferably for 4 hours in a fan-driven cabinet. The coated plates are placed in watertight bags with a desiccant, and the bags sealed and stored at 4° C. until required.
# Two dilutions of standard serum are used. One, employed at a dilution of 1 in 1000, is used to indicate successful performance of the test (‘standard positive’). […] In the kits, the positive and cut-off standards are provided pre-diluted to working strength in a proprietary stabilisation buffer (Dako) which contains a preservative (ProClin 300; Supelco; used at 1 in 2000), and are not diluted further before addition to the test plate.
# The test serum samples are diluted 1:100 in Serum Conjugate Diluent (Appendix). The test kits provide a Diluter plate, which has very low protein binding properties. By adding 15 μl of serum to 135 μl of Serum Conjugate Diluent on the Diluter plate, an initial 1 in 10 dilution is achieved. Transfer of 15 μl from the Diluter plate to 135 μl of Serum Conjugate Diluent dispensed into each well in the test plate enables a further dilution to 1 in 100 (from the original sample) on the test plate. […] Dilution of sera can also be performed, if preferred, in bijoux or tubes before their addition in 150 μl volumes to the Test plate.
# Test and standard sera are incubated on the Test plate for 15 min at room temperature (˜20° C.), then 30 min at 37° C. Plate contents are then ejected and the plate washed 4 times with PBS/Tween (Appendix) and dried.
# A probe to detect the presence of immunoglobulin, to which is conjugated an enzyme (the ‘conjugate’), is then added. Preferably, the probe constitutes Protein G (recombinant form, in which the moiety that binds to albumin has been eliminated; available from Sigma and Calbiochem) conjugated with horse radish peroxidase, but many forms of conjugate are available. These include, as probes, Protein A; and monoclonal or polyclonal antibodies against the immunoglobulins of the species providing the test sample.
# [2] = Solubilisation of compounds; type: physicochemical; conditions: water
# Description: Each peptide is resuspended in the preferred solvent to a concentration of 1 mg per ml. This stock solution is dispensed in 500 μl volume aliquots in 1 ml bottles, labelled and stored at −85° C. or, less preferably, at −20° C.
# [3] = PS (Positive Control Serum) 1/1000
# [4] = PS (Positive Control Serum) 1/15000
# [5] = serum of Animal No. 28, sheep free of infection with C. abortus
# [6] = serum of Animal No. 14, sheep free of infection with C. abortus
substance,measurement,setting,value
Biotin-KASSAAFNLVGLIVKGSSIAADQ [Compound 2/L],Net Optical Density,antibodies to C. abortus; serum dilution 1/100,2.629
same,Net Optical Density,antibodies to C. abortus; serum dilution 1/200,1.885
same,Net Optical Density,antibodies to C. abortus; serum dilution 1/400,1.107
same,Net Optical Density,antibodies to C. abortus; serum dilution 1/800,0.544
same,Net Optical Density,antibodies to C. abortus; serum dilution 1/1600,0.263
same,Net Optical Density,antibodies to C. abortus; serum dilution 1/3200,0.115
same,Net Optical Density,antibodies to C. abortus; serum dilution 1/6400,0.056
same,Net OD [Gross OD - No compound OD],[1]; [3],1.534
same,Net OD [Gross OD - No compound OD],[1]; [4],0.098
same,Net OD [Gross OD - No compound OD],"[1]; serum of Animal No. 5, sheep free of infection with C. abortus",0.285
same,Net OD [Gross OD - No compound OD],"[1]; serum of Animal No. 13, sheep free of infection with C. abortus",0.572
same,Net OD [Gross OD - No compound OD],[1]; [5],0.389
same,Net OD [Gross OD - No compound OD],"[1]; serum of Animal No. 36, sheep free of infection with C. abortus",0.128
Biotin-KTITGKKVPTGTAAANYKTPT [Compound 1-5],Net OD [Gross OD - No compound OD],[1]; [3],3.744
same,Net OD [Gross OD - No compound OD],[1]; [4],0.452
same,Net OD [Gross OD - No compound OD],[1]; [6],0.978
same,Net OD [Gross OD - No compound OD],"[1]; serum of Animal No. 19, sheep free of infection with C. abortus",0.747
same,Net OD [Gross OD - No compound OD],[1]; [5],0.352
same,Net OD [Gross OD - No compound OD],"[1]; serum of Animal No. 31, sheep free of infection with C. abortus",0.423
same,Net OD [Gross OD - No compound OD],"[1]; serum of Animal No. 37, sheep free of infection with C. abortus",0.580
Biotin-KTITGMGAVPTGTAAANYKT [Compound 1/AX],Net OD [Gross OD - No compound OD],[1]; [3],3.690
same,Net OD [Gross OD - No compound OD],[1]; [4],0.493
same,Net OD [Gross OD - No compound OD],[1]; [6],0.511
GKGSSIAADQNKGSSIAADQ [Compound #2],solubility,[2],soluble in water
SGTAAANYKTKGTAAANYKT [Compound #1],solubility,[2],soluble in water
